ChEMBL document CHEMBL1201862, “PubChem BioAssay data set” (2004)
Calls of active or inactive are those of the source.

Assays:
Caspase-3 = target: T1, Caspase-3 (Homo sapiens, UniProt P42574); assay: procaspase-3 activators, dose response, biochemical, absorbance (AID 489014)
T1 sequence (P42574 whole entry): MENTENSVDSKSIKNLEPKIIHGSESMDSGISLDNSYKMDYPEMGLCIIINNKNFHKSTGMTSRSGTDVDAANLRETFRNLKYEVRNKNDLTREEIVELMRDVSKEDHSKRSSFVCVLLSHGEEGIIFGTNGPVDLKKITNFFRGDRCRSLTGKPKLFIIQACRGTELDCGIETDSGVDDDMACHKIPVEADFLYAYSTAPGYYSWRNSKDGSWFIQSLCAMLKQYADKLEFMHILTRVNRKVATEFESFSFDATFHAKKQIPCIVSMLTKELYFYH

[1] = target: T2, Heat shock factor protein 1 (Mus musculus, UniProt P38532); assay: inhibition of MG132-induced HSE-luciferase signal, confirmation, cell-based, NIH3T3, luminescence, dose retest (AID 2382); format: functional;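 further: NIH3T3 fibroblasts with HSF1-driven luciferase reporter stressed by proteasome inhibitor MG132; luminescence from HSF1-driven luciferase expression after 8 hours of MG132 stress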
T2 sequence (P38532 whole entry): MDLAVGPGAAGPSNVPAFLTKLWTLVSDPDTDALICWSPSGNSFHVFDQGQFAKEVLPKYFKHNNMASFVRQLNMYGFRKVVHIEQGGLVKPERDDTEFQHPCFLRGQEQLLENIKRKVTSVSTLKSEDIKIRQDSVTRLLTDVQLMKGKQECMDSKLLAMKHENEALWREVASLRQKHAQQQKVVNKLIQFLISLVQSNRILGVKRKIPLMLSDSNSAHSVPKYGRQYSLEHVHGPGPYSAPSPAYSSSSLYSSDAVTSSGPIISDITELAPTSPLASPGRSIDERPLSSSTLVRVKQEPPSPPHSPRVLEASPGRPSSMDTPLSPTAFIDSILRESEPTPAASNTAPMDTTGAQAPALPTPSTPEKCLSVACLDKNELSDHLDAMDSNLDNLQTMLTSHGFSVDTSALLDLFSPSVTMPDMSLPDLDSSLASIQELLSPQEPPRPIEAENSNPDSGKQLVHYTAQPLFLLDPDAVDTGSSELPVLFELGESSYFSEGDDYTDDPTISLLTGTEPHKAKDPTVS

Caspase-7 = target: T3, Caspase-7 (Homo sapiens, UniProt P55210); assay: procaspase-7 activators, dose response, counter-screen for procaspase-3 activator project, biochemical, absorbance (AID 489013)
T3 sequence (P55210 whole entry): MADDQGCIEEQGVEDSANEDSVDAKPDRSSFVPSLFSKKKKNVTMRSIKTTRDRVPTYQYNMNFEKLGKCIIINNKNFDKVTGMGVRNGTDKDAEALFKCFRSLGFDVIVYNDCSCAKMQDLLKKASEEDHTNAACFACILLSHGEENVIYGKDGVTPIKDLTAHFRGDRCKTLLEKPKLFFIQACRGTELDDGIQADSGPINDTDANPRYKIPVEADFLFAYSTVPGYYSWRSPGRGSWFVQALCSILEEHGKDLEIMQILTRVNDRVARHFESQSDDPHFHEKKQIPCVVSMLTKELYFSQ

[2] = target: T4, Replicative DNA helicase DnaB (Mycobacterium tuberculosis, UniProt P9WMR3); assay: DnaB intein splicing inhibitors, dose response, biochemical, cell-free fluorescence (AID 449749); format: functional
T4 sequence (P9WMR3 whole entry): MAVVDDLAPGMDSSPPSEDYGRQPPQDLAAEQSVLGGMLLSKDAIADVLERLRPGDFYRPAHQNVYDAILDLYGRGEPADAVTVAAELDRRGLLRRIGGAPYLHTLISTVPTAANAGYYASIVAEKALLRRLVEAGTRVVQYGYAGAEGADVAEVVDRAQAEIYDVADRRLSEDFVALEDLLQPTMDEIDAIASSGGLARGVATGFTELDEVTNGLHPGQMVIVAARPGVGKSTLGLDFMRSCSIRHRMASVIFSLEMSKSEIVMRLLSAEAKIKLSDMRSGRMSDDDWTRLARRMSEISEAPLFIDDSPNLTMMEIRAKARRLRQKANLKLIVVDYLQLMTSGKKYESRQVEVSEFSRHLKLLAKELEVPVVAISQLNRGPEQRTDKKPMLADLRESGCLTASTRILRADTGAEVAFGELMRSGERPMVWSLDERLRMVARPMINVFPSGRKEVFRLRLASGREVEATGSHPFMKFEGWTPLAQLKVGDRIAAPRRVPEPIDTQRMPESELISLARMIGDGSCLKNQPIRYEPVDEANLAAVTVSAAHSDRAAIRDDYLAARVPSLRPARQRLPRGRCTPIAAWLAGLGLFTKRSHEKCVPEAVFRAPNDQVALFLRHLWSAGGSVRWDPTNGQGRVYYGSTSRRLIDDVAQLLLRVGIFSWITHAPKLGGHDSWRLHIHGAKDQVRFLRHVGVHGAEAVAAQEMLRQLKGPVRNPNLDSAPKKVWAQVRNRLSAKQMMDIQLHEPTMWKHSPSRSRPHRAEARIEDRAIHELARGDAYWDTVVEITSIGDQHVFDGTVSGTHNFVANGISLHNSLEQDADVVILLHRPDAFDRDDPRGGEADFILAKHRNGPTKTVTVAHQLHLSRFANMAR

Protein RecA = target: T5, Protein RecA (Mycobacterium tuberculosis, UniProt P9WHJ3); assay: Fluorescence Cell-Free Homogeneous Dose Retest to Identify Inhibitors of RecA-Intein Splicing Activity. [Related pubchem assays (depositor defined):AID2097, AID2223, AID489010, AID492950]; format: functional
T5 sequence (P9WHJ3 whole entry): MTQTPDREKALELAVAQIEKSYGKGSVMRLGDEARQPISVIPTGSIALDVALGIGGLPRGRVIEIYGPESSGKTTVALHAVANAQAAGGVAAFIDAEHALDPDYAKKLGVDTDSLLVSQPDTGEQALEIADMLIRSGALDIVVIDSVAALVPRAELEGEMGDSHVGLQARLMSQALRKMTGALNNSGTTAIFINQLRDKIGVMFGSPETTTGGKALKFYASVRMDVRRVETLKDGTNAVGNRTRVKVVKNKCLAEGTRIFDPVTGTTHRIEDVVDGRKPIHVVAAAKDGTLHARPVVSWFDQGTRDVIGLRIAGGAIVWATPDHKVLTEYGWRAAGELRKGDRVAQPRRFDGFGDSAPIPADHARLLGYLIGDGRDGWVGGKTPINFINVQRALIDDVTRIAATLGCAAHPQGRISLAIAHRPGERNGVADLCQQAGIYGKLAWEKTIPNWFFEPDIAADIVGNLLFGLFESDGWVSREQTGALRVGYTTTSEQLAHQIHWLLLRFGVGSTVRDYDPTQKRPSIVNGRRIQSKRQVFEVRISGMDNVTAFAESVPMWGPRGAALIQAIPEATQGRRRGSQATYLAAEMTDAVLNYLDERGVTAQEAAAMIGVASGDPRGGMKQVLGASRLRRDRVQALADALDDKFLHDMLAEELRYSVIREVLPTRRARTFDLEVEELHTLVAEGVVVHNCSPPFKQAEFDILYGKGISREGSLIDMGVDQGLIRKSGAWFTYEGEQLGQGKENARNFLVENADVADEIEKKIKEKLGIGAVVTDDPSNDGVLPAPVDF

[3] = target: G-protein coupled receptor 55 (Homo sapiens, UniProt Q9Y2T6); assay: GPR55 agonists via beta-arrestin recruitment, primary screen, imaging, U2OS cells, beta-arrestin-GFP redistribution (AID 1961); format: functional
Vero [4] = assay: cells; format: functional; settings: Chlorocebus sabaeus
Vero [5] = assay: cells; format: functional, cell-based; settings: Chlorocebus sabaeus
Troponin, cardiac muscle = Troponin, cardiac muscle (Homo sapiens, UniProt P19429+P45379+P63316); assay: inhibitors of cardiac thin filament calcium sensitivity, dose response, biochemical, fluorescence, cardiac regulated thin filaments, triplicate IC50 (AID 504742); format: protein-complex assay
[6] = target: T6, Rac GTPase-activating protein 1 (Homo sapiens, UniProt Q9H0H5); assay: MgcRacGAP GTPase-activating activity inhibitors, confirmation, biochemical, ADP Hunter fluorescence, primary and confirmatory (AID 624330); format: functional
T6 sequence (Q9H0H5 whole entry): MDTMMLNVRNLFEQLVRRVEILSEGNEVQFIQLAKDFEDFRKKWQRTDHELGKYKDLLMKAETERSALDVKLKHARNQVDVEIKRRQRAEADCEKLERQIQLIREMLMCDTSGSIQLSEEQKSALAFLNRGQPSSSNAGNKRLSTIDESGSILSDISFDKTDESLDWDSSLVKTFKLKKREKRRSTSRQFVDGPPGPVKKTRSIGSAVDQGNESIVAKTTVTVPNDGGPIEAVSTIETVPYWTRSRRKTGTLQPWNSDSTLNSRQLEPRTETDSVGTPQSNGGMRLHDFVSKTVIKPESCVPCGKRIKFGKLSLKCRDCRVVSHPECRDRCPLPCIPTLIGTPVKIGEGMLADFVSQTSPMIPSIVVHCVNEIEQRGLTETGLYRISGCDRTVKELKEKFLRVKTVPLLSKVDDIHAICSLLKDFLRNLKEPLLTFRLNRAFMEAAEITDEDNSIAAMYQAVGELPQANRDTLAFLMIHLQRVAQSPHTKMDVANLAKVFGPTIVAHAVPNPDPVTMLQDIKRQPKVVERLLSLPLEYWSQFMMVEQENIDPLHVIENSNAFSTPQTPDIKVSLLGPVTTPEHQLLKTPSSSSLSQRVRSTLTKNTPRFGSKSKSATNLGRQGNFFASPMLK

ORF 73 = target: T7, ORF 73 (Human herpesvirus 8, UniProt O40947); assay: inhibitors of C-LANA binding to LBS DNA, dose response, biochemical, fluorescence polarization, cherry-picked samples (AID 504725); set-up: species or system Human gammaherpesvirus 8;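 further: fluorescence polarization of a labeled DNA duplex reporting LANA DNA binding; potency is for inhibitors that block LANA binding to the DNA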
T7 sequence (O40947 whole entry): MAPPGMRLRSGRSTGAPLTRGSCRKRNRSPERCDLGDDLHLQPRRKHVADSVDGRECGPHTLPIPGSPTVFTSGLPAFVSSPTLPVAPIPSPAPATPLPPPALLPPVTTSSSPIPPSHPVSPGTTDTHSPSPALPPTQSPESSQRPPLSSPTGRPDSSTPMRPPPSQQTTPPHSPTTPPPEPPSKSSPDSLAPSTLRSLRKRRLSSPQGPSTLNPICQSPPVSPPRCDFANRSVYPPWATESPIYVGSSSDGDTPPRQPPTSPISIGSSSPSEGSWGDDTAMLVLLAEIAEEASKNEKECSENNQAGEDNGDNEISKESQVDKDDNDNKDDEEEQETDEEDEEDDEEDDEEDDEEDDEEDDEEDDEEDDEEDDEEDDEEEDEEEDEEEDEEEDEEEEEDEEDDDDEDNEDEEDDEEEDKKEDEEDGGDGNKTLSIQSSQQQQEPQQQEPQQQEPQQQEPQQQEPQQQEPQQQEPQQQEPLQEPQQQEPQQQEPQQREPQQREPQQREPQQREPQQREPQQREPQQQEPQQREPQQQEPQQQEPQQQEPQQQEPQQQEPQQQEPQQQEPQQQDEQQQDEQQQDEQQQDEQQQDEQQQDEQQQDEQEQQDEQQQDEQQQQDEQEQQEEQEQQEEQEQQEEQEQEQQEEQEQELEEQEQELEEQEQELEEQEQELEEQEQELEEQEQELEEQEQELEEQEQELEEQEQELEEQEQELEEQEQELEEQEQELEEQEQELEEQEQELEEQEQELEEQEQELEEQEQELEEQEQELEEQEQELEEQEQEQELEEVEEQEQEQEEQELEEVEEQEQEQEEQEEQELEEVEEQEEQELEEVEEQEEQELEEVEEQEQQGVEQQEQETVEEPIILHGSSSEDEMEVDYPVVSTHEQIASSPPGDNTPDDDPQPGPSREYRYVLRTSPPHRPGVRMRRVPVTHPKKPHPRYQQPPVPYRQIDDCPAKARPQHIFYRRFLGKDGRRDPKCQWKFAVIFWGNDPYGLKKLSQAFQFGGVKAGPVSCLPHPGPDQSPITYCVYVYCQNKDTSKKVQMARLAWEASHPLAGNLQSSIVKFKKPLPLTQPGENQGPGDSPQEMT

[7] = C. albicans growth with fluconazole, confirmation, fluorescence, retest (AID 2467); format: functional, cell-based
[8] = NIH-3T3 fibroblast cytotoxicity, dose response, cytotoxicity control, cell-based, fluorescence, Alamar Blue, secondary assay (AID 2327); format: functional;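 further: NIH-3T3 mouse fibroblasts cultured with fluconazole at 8 µg/mL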
[9] = Vero E6 cell cytotoxicity, dose response, cytotoxicity control for non-replicating M. tuberculosis project, secondary assay (AID 492998); format: functional, VeroE6; settings: Vero C1008
cells = format: functional
[10] = THP-1 cell cytotoxicity, dose response, cytotoxicity control for non-replicating M. tuberculosis project (AID 489025); format: functional
[11] = tested on: Streptococcus sp. 'group A'; assay: growth inhibition of control SK(-) GAS strain, dose response, counter-screen for streptokinase expression inhibitor project, luminescence, kanamycin, BacTiterGlo, confirmation (AID 1900); format: functional, organism-based
Streptococcus = assay: Group A Streptococcus viability loss, dose response, counter-screen for streptokinase expression inhibitor project, luminescence, BacTiterGlo (AID 1915); format: functional, organism-based;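 further: potency for reduction of bacterial viability or growth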

Cc1c(Cc2ccccc2)sc(/N=C/c2c(O)ccc3ccccc23)c1C(N)=O
EC50 (Caspase-3): > 85.3 µM (inactive) | EC50 [1]: > 195 µM (not active) | EC50 (Caspase-7): > 85.3 µM (inactive)

Cc1ccc(C)c(-c2ccc(=O)n(Cc3cccc(Br)c3)n2)c1
AC50 [2]: 4.88 µM (active) | EC50 (Protein RecA): 24.1 µM (active) | EC50 [3]: 3.48 µM (active)

Cc1ccc(C)c(CN2C(=O)c3ccccc3[S+]([O-])c3ccc(C(=O)N4CCN(c5ccccn5)CC4)cc32)c1 (stereo unspecified)
CC50 (Vero [4]): 13.7 µM (active) | EC50 [3]: 1.32 µM (active) | IC50 (Vero [5]): 2.51 µM (active)

O=C1C(=Cc2ccco2)CCC1=Cc1ccco1
IC50 (Troponin, cardiac muscle): > 71.5 µM (inactive) | IC50 [6]: 32.4 µM (active) | AC50 (ORF 73): 63 µM (active)

CC(=O)Oc1c(-c2ccc(Br)o2)oc2ccccc2c1=O
EC50 [7]: 1.36 µM (active) | EC50 [8]: > 150 µM (inactive) | CC50 [9]: 16.3 µM (active) | IC50 (cells): 4.63 µM (active) | EC50 (Caspase-3): 33.4 µM (inactive) | CC50 [10]: > 40 µM (active) | EC50 [11]: 2.26 µM (active) | EC50 (Streptococcus): 9.2 µM (active) | EC50 (Caspase-7): > 85.3 µM (inactive)
